Biological target: G. pallida SER-7 (Globodera pallida, UniProt A0A183BS20, DEL280-286/G462A/H333Q/S454N/S6T/Y334H)
Test: Cut head pharyngeal pumping assay, ser-7 (tm1325) expressing Gpa-ser-7

In the case of NCCc1c[nH]c2ccc(O)cc12 [serotonin, 5-hydroxytryptamine], the EC50 is reported as 3.9 µM.
